# Source: patent publication US10023570B2 (Array BioPharma, Inc., priority 2015, dated 2018)
# Target: human KDR protein in HEK-293 cells (Homo sapiens (Human), UniProt P35968)
# Test: KDR Cell Assay (phospho-KDR in HEK-293 cells expressing inducible KDR)
# Assay type: cell-based
# Conditions: pKDR Cell HEK 10% FBS IC50, HEK-293 cells expressing inducible KDR, VEGF stimulated
# Experimental: The cellular potency of a compound inhibiting KDR kinase was determined in HEK-293 cells expressing an inducible human KDR protein. […] The cells were incubated for 1 hour with test compound in DMEM at a final DMSO concentration of 0.25%. […] The media was aspirated and 35 μL of a 1× lysis buffer was added. […] The lysate was stored at −80° C. until ready for assay. Phospho-KDR was measured using a phospho-KDR kit (Catalog #K151BOC) purchased from Meso Scale Diagnostics (Rockville, Md.) according to the manufacturer's instructions. All values are expressed as percent of percent of control (POC). The POC values were fitted to a 4 parameter logistic curve fit and the IC50 value is point where the curve crosses 50 POC.
# human KDR protein in HEK-293 cells, sequence (P35968 20-1356): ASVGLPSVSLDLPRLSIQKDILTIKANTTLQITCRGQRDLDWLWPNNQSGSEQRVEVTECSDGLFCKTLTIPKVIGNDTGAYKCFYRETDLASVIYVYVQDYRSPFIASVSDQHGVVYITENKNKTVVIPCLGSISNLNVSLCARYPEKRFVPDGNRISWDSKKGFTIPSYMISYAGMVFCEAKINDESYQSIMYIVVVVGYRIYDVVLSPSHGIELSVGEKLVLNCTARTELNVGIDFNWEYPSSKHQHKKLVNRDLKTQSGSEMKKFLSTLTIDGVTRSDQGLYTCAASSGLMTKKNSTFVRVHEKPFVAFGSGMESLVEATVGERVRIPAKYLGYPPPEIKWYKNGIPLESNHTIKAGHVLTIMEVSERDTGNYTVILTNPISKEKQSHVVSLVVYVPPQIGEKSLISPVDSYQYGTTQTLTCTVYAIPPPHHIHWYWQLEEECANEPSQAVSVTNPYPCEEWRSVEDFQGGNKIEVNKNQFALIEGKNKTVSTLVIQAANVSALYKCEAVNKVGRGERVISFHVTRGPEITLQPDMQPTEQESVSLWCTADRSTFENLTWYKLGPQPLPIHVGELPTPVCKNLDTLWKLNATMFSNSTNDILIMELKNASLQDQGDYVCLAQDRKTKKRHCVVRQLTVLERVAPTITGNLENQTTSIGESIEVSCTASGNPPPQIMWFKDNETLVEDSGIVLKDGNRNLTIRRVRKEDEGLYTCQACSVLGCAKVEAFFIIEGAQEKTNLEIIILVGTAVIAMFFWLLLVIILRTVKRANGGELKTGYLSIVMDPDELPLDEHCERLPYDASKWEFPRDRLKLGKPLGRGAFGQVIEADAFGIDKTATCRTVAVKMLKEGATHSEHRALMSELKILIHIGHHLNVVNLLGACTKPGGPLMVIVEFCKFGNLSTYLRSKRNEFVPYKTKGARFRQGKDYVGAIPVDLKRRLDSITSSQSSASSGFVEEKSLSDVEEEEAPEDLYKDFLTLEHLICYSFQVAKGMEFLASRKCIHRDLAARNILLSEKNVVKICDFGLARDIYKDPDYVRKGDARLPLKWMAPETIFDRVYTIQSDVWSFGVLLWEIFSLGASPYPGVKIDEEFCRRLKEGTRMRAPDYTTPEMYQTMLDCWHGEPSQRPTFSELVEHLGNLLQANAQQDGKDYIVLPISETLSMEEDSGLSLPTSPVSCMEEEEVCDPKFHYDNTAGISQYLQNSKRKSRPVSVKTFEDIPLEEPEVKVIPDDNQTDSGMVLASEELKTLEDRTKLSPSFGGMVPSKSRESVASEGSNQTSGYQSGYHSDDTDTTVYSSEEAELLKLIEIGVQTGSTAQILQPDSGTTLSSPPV
SMILES,IC50 (10% FBS),IC50
"Cn1cnc(C(=O)N2CCN(c3ccc(-c4cc(-c5cnn(C)c5)cn5ncc(C#N)c45)cn3)CC2)c1 [Example 36, 4-(6-(4-(1-methyl-1H-imidazole-4-carbonyl)piperazin-1-yl)pyridin-3-yl)-6-(1-methyl-1H-pyrazol-4-yl)pyrazolo[1,5-a]pyridine-3-carbonitrile bis(2,2,2-trifluoroacetate)]",212 nM,
"Cn1cc(-c2cc(-c3ccc(N4CCN(C(=O)CCc5cccnc5)CC4)nc3)c3c(C#N)cnn3c2)cn1 [Example 43, 6-(1-methyl-1H-pyrazol-4-yl)-4-(6-(4-(3-(pyridin-3-yl)propanoyl)piperazin-1-yl)pyridin-3-yl)pyrazolo[1,5-a]pyridine-3-carbonitrile bis(2,2,2-trifluoroacetate)]",653 nM,
"Cn1cc(-c2cc(-c3ccc(N4CC5(CCOC5)C4)nc3)c3c(C#N)cnn3c2)cn1 [Example 528, 4-(6-(6-oxa-2-azaspiro[3.4]octan-2-yl)pyridin-3-yl)-6-(1-methyl-1H-pyrazol-4-yl)pyrazolo[1,5-a]pyridine-3-carbonitrile 2,2,2-trifluoroacetate]",,1670 nM
"COC(=O)N1CCN(c2ccc(-c3cc(-c4cnn(C)c4)cn4ncc(C#N)c34)cc2)CC1 [Example 298, Methyl 4-(4-(3-cyano-6-(1-methyl-1H-pyrazol-4-yl)pyrazolo[1,5-a]pyridin-4-yl)phenyl)piperazine-1-carboxylate]",1830 nM,
"C[C@H](CO)Cn1cc(-c2cc(-c3ccc(N4CCN(C(=O)CC(C)(C)C)CC4)cc3)c3c(C#N)cnn3c2)cn1 [Example 307, (S)-4-(4-(4-(3,3-dimethylbutanoyl)piperazin-1-yl)phenyl)-6-(1-(3-hydroxy-2-methylpropyl)-1H-pyrazol-4-yl)pyrazolo[1,5-a]pyridine-3-carbonitrile]",864 nM,
"COCCn1ccc(C(=O)N2CCN(c3ccc(-c4cc(-c5cnn(C)c5)cn5ncc(C#N)c45)cn3)CC2)n1 [Example 366, 4-(6-(4-(1-(2-methoxyethyl)-1H-pyrazole-3-carbonyl)piperazin-1-yl)pyridin-3-yl)-6-(1-methyl-1H-pyrazol-4-yl)pyrazolo[1,5-a]pyridine-3-carbonitrile bis(2,2,2-trifluoroacetate)]",422 nM,
"CO[C@H]1CCN(C(=O)N2CCN(c3ccc(-c4cc(-c5cnn(C(F)F)c5)cn5ncc(C#N)c45)cn3)CC2)C1 [Example 269, (S)-6-(1-(difluoromethyl)-1H-pyrazol-4-yl)-4-(6-(4-(3-methoxypyrrolidine-1-carbonyl)piperazin-1-yl)pyridin-3-yl)pyrazolo[1,5-a]pyridine-3-carbonitrile]",1700 nM,
"Cn1cc(-c2cc(-c3ccc(N4CCN(C(=O)c5c(F)cccc5F)CC4)nc3)c3c(C#N)cnn3c2)cn1 [Example 51, 4-(6-(4-(2,6-difluorobenzoyl)piperazin-1-yl)pyridin-3-yl)-6-(1-methyl-1H-pyrazol-4-yl)pyrazolo[1,5-a]pyridine-3-carbonitrile 2,2,2-trifluoroacetate]",267 nM,
"Cc1cncc(CN2CCN(c3ccc(-c4cc(-c5cnn(C)c5)cn5ncc(C#N)c45)cn3)CC2)n1 [Example 431, 6-(1-methyl-1H-pyrazol-4-yl)-4-(6-(4-((6-methylpyrazin-2-yl)methyl)piperazin-l-yl)pyridin-3-yl)pyrazolo[1,5-a]pyridine-3-carbonitrile]",,1500 nM
"Cn1cc(-c2cc(-c3ccc(N4CCC5(CCOC5)C4)nc3)c3c(C#N)cnn3c2)cn1 (stereo not drawn) [Example 530, 4-(6-(2-oxa-7-azaspiro[4.4]nonan-7-yl)pyridin-3-yl)-6-(1-methyl-1H-pyrazol-4-yl)pyrazolo[1,5-a]pyridine-3-carbonitrile 2,2,2-trifluoroacetate]",,1540 nM
"Cn1cc(-c2cc(-c3ccc(N4CCN(CC(=O)N5CCCC5)CC4)nc3)c3c(C#N)cnn3c2)cn1 [Example 145, 6-(1-methyl-1H-pyrazol-4-yl)-4-(6-(4-(2-oxo-2-(pyrrolidin-1-yl)ethyl)piperazin-1-yl)pyridin-3-yl)pyrazolo[1,5-a]pyridine-3-carbonitrile 2,2,2-trifluoroacetate]",682 nM,

# Results, then the compound that gave them:
IC50 (10% FBS),IC50,SMILES
255 nM,,"Cn1cc(-c2cc(-c3ccc(N4CCC(N5CCCC5=O)CC4)nc3)c3c(C#N)cnn3c2)cn1 [Example 189, 6-(1-methyl-1H-pyrazol-4-yl)-4-(6-(4-(2-oxopyrrolidin-1-yl)piperidin-1-yl)pyridin-3-yl)pyrazolo[1,5-a]pyridine-3-carbonitrile]"
,≥ 5000 nM,"Cn1cc(-c2cc(-c3ccc(N4CCN(Cc5ccccc5)CC4)nc3)c3c(C#N)cnn3c2)c(C2CC2)n1 [Example 619, 4-(6-(4-benzylpiperazin-1-yl)pyridin-3-yl)-6-(3-cyclopropyl-1-methyl-1H-pyrazol-4-yl)pyrazolo[1,5-a]pyridine-3-carbonitrile]"
,467 nM,"COc1cccc(CN2CCN(c3ccc(-c4cc(-c5cnn(C)c5)cn5ncc(C#N)c45)cn3)CC2)c1 [Example 450, 4-(6-(4-(3-methoxybenzyl)piperazin-1-yl)pyridin-3-yl)-6-(1-methyl-1H-pyrazol-4-yl)pyrazolo[1,5-a]pyridine-3-carbonitrile]"
979 nM,,"Cn1cc(-c2cc(-c3ccc(N4CCN([C@@H]5CCCC[C@H]5O)CC4)nc3)c3c(C#N)cnn3c2)cn1 [Example 155, 4-(6-(4-((1r,2r)-2-hydroxycyclohexyl)piperazin-1-yl)pyridin-3-yl)-6-(1-methyl-1H-pyrazol-4-yl)pyrazolo[1,5-a]pyridine-3-carbonitrile]"
237 nM,,"Cn1cc(-c2cc(-c3ccc(N4CCN(C(=O)C5(c6ccc(Cl)cc6)CC5)CC4)nc3)c3c(C#N)cnn3c2)cn1 [Example 341, 4-(6-(4-(1-(4-chlorophenyl)cyclopropanecarbonyl)piperazin-1-yl)pyridin-3-yl)-6-(1-methyl-1H-pyrazol-4-yl)pyrazolo[1,5-a]pyridine-3-carbonitrile]"
,374 nM,"Cn1cc(-c2cc(-c3ccc(N4CCC(Cc5ccccc5)CC4)nc3)c3c(C#N)cnn3c2)cn1 [Example 535, 4-(6-(4-benzylpiperidin-l-yl)pyridin-3-yl)-6-(1-methyl-1H-pyrazol-4-yl)pyrazolo[1,5-a]pyridine-3-carbonitrile]"
897 nM,,"CO[C@H]1C[C@H](NC(=O)C2CCN(c3ccc(-c4cc(-c5cnn(C)c5)cn5ncc(C#N)c45)cn3)CC2)C1 [Example 240, 1-(5-(3-cyano-6-(1-methyl-1H-pyrazol-4-yl)pyrazolo[1,5-a]pyridin-4-yl)pyridin-2-yl)-N-((1r,3r)-3-methoxycyclobutyl) piperidine-4-carboxamide]"
,464 nM,"Cn1cc(-c2cc(-c3ccc(N4CCN(Cc5cccc(Cl)c5)CC4)nc3)c3c(C#N)cnn3c2)cn1 [Example 455, 4-(6-(4-(3-chlorobenzyl)piperazin-1-yl)pyridin-3-yl)-6-(1-yl)methyl-1H-pyrazol-4-pyrazolo[1,5-a]pyridine-3-carbonitrile]"
,828 nM,"Cn1cc(-c2cc(-c3ccc(N4CCN(CCOC5CC5)CC4)nc3)c3c(C#N)cnn3c2)cn1 [Example 407, 4-(6-(4-(2-cyclopropoxyethyl)piperazin-1-yl)pyridin-3-yl)-6-(1-methyl-1H-pyrazol-4-yl)pyrazolo[1,5-a]pyridine-3-carbonitrile]"
991 nM,,"Cn1cc(-c2cc(-c3ccc(N4CCN([C@@H]5CCC[C@H]5O)CC4)nc3)c3c(C#N)cnn3c2)cn1 [Example 163, 4-(6-(4-((1r,2r)-2-hydroxycyclopentyl)piperazin-1-yl)pyridin-3-yl)-6-(1-methyl-1H-pyrazol-4-yl)pyrazolo[1,5-a]pyridine-3-carbonitrile]"
2240 nM,,"CN1CCN(C(=O)N2CCN(c3ccc(-c4cc(-c5cnn(C)c5)cn5ncc(C#N)c45)cn3)CC2)CC1 [Example 120, 6-(1-methyl-1H-pyrazol-4-yl)-4-(6-(4-(4-methylpiperazine-1-carbonyl)piperazin-1-yl)pyridin-3-yl)pyrazolo[1,5-a]pyridine-3-carbonitrile]"
21.8 nM,,"Cn1cc(-c2cc(-c3ccc(N4CCC(N5CCOC5=O)CC4)nc3)c3c(C#N)cnn3c2)cn1 [Example 191, 6-(1-methyl-1H-pyrazol-4-yl)-4-(6-(4-(2-oxooxazolidin-3-yl)piperidin-1-yl)pyridin-3-yl)pyrazolo[1,5-a]pyridine-3-carbonitrile]"
,1290 nM,"Cc1cnc(CN2CCN(c3ccc(-c4cc(-c5cnn(C)c5)cn5ncc(C#N)c45)cn3)CC2)cn1 [Example 444, 6-(1-methyl-1H-pyrazol-4-yl)-4-(6-(4-((5-methylpyrazin-2-yl)methyl)piperazin-1-yl)pyridin-3-yl)pyrazolo[1,5-a]pyridine-3-carbonitrile]"
,346 nM,"Cn1cc(-c2cc(-c3ccc(N4CCN(C(=O)N5CCC(C6CC6)C5)CC4)nc3)c3c(C#N)cnn3c2)cn1 (stereo not drawn) [Example 388, 4-(6-(4-(3-cyclopropylpyrrolidine-1-carbonyl)piperazin-1-yl)pyridin-3-yl)-6-(1-methyl-1H-pyrazol-4-yl)pyrazolo[1,5-a]pyridine-3-carbonitrile]"
1670 nM,,"Cn1cc(-c2cc(-c3ccc(N4CCC5(CC4)CN(C(=O)c4ccccc4)C5)nc3)c3c(C#N)cnn3c2)cn1 [Example 217, 4-(6-(2-benzoyl-2,7-diazaspiro[3.5]nonan-7-yl)pyridin-3-yl)-6-(1-methyl-1H-pyrazol-4-yl)pyrazolo[1,5-a]pyridine-3-carbonitrile]"
1440 nM,,"Cn1cc(-c2cc(-c3ccc(N4CCN(C(=O)CC(C)(C)C)C5(CC5)C4)nc3)c3c(C#N)cnn3c2)cn1 [Example 169, 4-(6-(4-(3,3-dimethylbutanoyl)-4,7-diazaspiro[2.5]octan-7-yl)pyridin-3-yl)-6-(1-methyl-1H-pyrazol-4-yl)pyrazolo[1,5-a]pyridine-3-carbonitrile]"
